Like-named read-outs stand apart in the source and are kept apart here.
Tests used:
human mGlu2 receptor = biological target: T1, human mGlu2 receptor (Homo sapiens, UniProt Q14416); test: [35S]GTPγS binding assay (mGluR2 negative allosteric modulation, glutamate ~EC80 60 μM); assay type: biochemical; conditions: for Emax: read-out: GTPγS-hmGluR2 anGT Emax; for IC50: glutamate ~EC80 (60 μM), pIC50 = −log IC50 (M)
T1 construct: expressed in transfected cells; host or cells: CHO cells
Method: 1) [^35S]GTPγS Binding Assay
[^35S]GTPγS Binding Assay
Total reaction volume was 200 μl. […] Membrane-bound radioactivity was counted in a Topcount.

[1] = maximal % inhibition relative to the control glutamate response (EC80 glutamate)
[2] = membranes from CHO cells transfected with human mGlu2 receptor, read-out: GTPγS-hmGluR2 anGT pIC50 (converted)

T1 sequence (Q14416 19-872): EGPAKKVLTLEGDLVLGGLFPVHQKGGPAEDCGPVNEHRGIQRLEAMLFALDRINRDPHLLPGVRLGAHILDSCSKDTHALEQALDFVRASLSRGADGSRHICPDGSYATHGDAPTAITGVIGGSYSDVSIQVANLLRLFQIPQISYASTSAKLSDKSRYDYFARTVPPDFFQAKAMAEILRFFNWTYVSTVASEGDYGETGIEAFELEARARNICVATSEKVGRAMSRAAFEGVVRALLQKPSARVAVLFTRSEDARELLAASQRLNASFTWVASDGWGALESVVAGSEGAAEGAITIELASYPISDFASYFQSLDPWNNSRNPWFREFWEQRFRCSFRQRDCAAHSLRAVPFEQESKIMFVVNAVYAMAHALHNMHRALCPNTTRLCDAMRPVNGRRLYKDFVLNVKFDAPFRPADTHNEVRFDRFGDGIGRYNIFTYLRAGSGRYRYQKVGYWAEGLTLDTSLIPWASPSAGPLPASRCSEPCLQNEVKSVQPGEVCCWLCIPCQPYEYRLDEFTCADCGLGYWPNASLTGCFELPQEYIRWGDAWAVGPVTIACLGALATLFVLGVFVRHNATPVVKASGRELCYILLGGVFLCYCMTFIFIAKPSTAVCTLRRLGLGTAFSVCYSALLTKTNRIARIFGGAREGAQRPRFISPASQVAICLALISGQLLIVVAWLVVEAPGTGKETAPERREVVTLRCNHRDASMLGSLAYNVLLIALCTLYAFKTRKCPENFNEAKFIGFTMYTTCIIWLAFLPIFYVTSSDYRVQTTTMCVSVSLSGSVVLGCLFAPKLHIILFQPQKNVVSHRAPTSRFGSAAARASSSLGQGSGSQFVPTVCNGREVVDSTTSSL

Compound	Emax (human mGlu2 receptor; [1])	IC50 (human mGlu2 receptor; [2])	melting point	IC50 (human mGlu2 receptor; GTPγS-hmGluR2 anGT pIC50, membranes from CHO cells transfected with human mGlu2 receptor)	Emax (human mGlu2 receptor)	GTPγS-hmGluR2 anGT Emax (human mGlu2 receptor; [1])
Cc1cc(C(=O)Nc2cnn3c2C(=O)N(c2ccc(C(F)(F)F)cc2)C[C@@H]3C)cc(N)n1 [Co. No. 162]	107%	2.75e-09 M	196.39 °C			
COc1cncc(C(=O)Nc2cnn3c2C(=O)N(c2ccc(Cl)cc2)C[C@@H]3C)c1 [Co. No. 137]	106%	1.74e-08 M	153.4 °C			
COc1nc(N2C[C@H](C)n3ncc(NC(=O)c4ccccc4)c3C2=O)ccc1Cl [Co. No. 76, N-[(7S)-5-(5-Chloro-6-methoxy-2-pyridyl)-7-methyl-4-oxo-6,7-dihydropyrazolo[1,5-a]pyrazin-3-yl]benzamide]	106%	5.89e-08 M	188.77 °C			
Cc1cc(C(=O)Nc2cnn3c2C(=O)N(c2ccc(C(F)(F)F)c(F)c2)C[C@@H]3C)ccn1 [Co. No. 130]	107%	7.41e-09 M	134.44 °C			
Cc1cc(N2C[C@H](C)n3ncc(NC(=O)c4ccccc4)c3C2=O)ccc1C(F)(F)F [Co. No. 7]	108%	2.29e-09 M	154.53 °C			
COc1ccccc1C(=O)Nc1cnn2c1C(=O)N(c1ccc(C(F)(F)F)c(OC)n1)C[C@@H]2C [Co. No. 75]	103%	5.37e-08 M	231.11 °C			
Cc1cc(C(=O)Nc2cnn3c2C(=O)N(c2ccc(C(F)(F)F)cc2)C[C@@H]3C)nc(N)n1 [Co. No. 180]	107%	4.37e-08 M	265.47 °C			
COCC1CN(c2ccc(C(F)(F)F)cc2)C(=O)c2c(NC(=O)c3ccc(N)nc3)cnn21 (single isomer, unassigned) [Co. No. 96]	95%	1.45e-06 M	225.83 °C			
COCc1cncc(C(=O)Nc2cnn3c2C(=O)N(c2ccc(C(F)(F)F)cc2)C[C@@H]3C)c1 [Co. No. 138]	106%	2.95e-08 M	149.93 °C			
Cc1cc(C(=O)Nc2cnn3c2C(=O)N(c2ccc(C(F)(F)F)cc2)C[C@@H]3C)no1 [Co. No. 72]	99%	4.27e-08 M	209.27 °C			
Cc1ccc(C(=O)Nc2cnn3c2C(=O)N(c2ccc(C(F)(F)F)cc2)C[C@@H]3C)cn1 [Co. No. 54]	104%	1.78e-08 M	175.17 °C			
Cc1cncc(C(=O)Nc2cnn3c2C(=O)N(c2ccc(C(F)(F)F)c(Cl)c2)C[C@@H]3C)c1C [Co. No. 133]	109%	3.31e-09 M	172.8 °C			
Cc1cc(C(=O)Nc2cnn3c2C(=O)N(c2ccc(C(F)(F)F)cc2)C[C@@H]3C)on1 [Co. No. 71]	97%	3.8e-08 M	243.14 °C			
C[C@H]1CN(c2ccc(C(F)(F)F)cc2)C(=O)c2c(NC(=O)c3ccc(S(=O)(=O)F)cc3)cnn21 [Co. No. 218]			163.64 °C	4.37e-08 M	112%	
COCc1cncc(C(=O)Nc2cnn3c2C(=O)N(c2ccc(C(F)(F)F)c(Cl)c2)C[C@@H]3C)c1 [Co. No. 139]	108%	3.02e-09 M	170.75 °C			
Cc1cccnc1C(=O)Nc1cnn2c1C(=O)N(c1ccc(C(F)(F)F)cc1)C[C@@H]2C [Co. No. 57]	103%	2.04e-08 M	292.16 °C			
Cc1cccc(C(=O)Nc2cnn3c2C(=O)N(c2ccc(C(F)(F)F)cc2)C[C@@H]3C)c1 [Co. No. 9]	106%	2.45e-09 M	147.4 °C			
C[C@@H]1CN(c2ccc(C(F)(F)F)cc2)C(=O)c2c(NC(=O)c3cccnc3)cnn21 [Co. No. 188]	105%	2.45e-07 M	152.2 °C			
C[C@H]1CN(c2ccc(C(F)(F)F)cc2)C(=O)c2c(NC(=O)c3ncco3)cnn21 [Co. No. 63, N-[(7S)-7-Methyl-4-oxo-5-[4-(trifluoromethyl)phenyl]-6,7-dihydropyrazolo[1,5-a]pyrazin-3-yl]oxazole-2-carboxamide]	109%	2.63e-08 M	204.97 °C			

Compound	Emax (human mGlu2 receptor; [1])	IC50 (human mGlu2 receptor; [2])	melting point	IC50 (human mGlu2 receptor; GTPγS-hmGluR2 anGT pIC50, membranes from CHO cells transfected with human mGlu2 receptor)	Emax (human mGlu2 receptor)	GTPγS-hmGluR2 anGT Emax (human mGlu2 receptor; [1])
COCC1CN(c2ccc(C(F)(F)F)cc2)C(=O)c2c(NC(=O)c3ccccc3F)cnn21 (single isomer, unassigned) [Co. No. 62b]		4.79e-06 M	162.51 °C			66%
COc1cc(C(=O)Nc2cnn3c2C(=O)N(c2ccc(C(F)(F)F)cc2)C[C@@H]3C)ccn1 [Co. No. 47]	101%	1.29e-08 M	128.68 °C			
COc1ccc(C(=O)Nc2cnn3c2C(=O)N(c2ccc(C(F)(F)F)cc2)C[C@@H]3C)cc1F [Co. No. 23]	105%	5.5e-09 M	152.43 °C			
C[C@H]1CN(c2ccc(C(F)(F)F)cc2)C(=O)c2c(NC(=O)c3ccc(F)cc3)cnn21 [Co. No. 49]	101%	1.32e-08 M	119.36 °C			
COc1ccc(C(=O)Nc2cnn3c2C(=O)N(c2ccc(C(F)(F)F)cc2)C[C@@H]3C)cc1 [Co. No. 25]	104%	6.17e-09 M	164.82 °C			
COc1cc(F)ccc1C(=O)Nc1cnn2c1C(=O)N(c1ccc(C(F)(F)F)cc1)C[C@@H]2C [Co. No. 58]	101%	2.19e-08 M	240.77 °C			
C[C@H]1CN(c2ccc(C(F)(F)F)cc2)C(=O)c2c(NC(=O)c3ncc[nH]3)cnn21 [Co. No. 80]	111%	1e-07 M	275.03 °C			
COc1c(F)cccc1C(=O)Nc1cnn2c1C(=O)N(c1ccc(C(F)(F)F)cc1)C[C@@H]2C [Co. No. 19]	117%	4.37e-09 M	170.98 °C			
Cc1nccc(C(=O)Nc2cnn3c2C(=O)N(c2ccc(C(F)(F)F)cc2)C[C@@H]3C)c1C [Co. No. 156]		2.4e-08 M	182.69 °C			113%
COc1ncccc1C(=O)Nc1cnn2c1C(=O)N(c1ccc(C(F)(F)F)cc1)C[C@@H]2C [Co. No. 43]	114%	1.12e-08 M	213.83 °C			
Cc1nc(C(=O)Nc2cnn3c2C(=O)N(c2ccc(C(F)(F)F)cc2)C[C@@H]3C)co1 [Co. No. 81]	103%	1.02e-07 M	189.92 °C			
COc1cccc(C(=O)Nc2cnn3c2C(=O)N(c2ccc(C(F)(F)F)cc2)C[C@@H]3C)c1F [Co. No. 59]	110%	2.24e-08 M	205.32 °C			
C[C@H]1CN(c2ccc(C(F)(F)F)cc2)C(=O)c2c(NC(=O)c3cnn(C)c3)cnn21 [Co. No. 86]	103%	1.91e-07 M	167.59 °C			
C[C@H]1CN(c2ccc(C(F)(F)F)cc2)C(=O)c2c(NC(=O)c3ccncc3)cnn21 [Co. No. 55]	105%	2e-08 M	145.26 °C			
COc1ccc(C(=O)Nc2cnn3c2C(=O)N(c2ccc(C(F)(F)F)cc2)C[C@@H]3C)c(F)c1 [Co. No. 44]	115%	1.12e-08 M	214.58 °C			
Cc1ncccc1C(=O)Nc1cnn2c1C(=O)N(c1ccc(C(F)(F)F)cc1)C[C@@H]2C [Co. No. 66]	104%	2.75e-08 M	120.37 °C			
C[C@H]1CN(c2ccc(C(F)(F)F)cc2)C(=O)c2c(NC(=O)c3ccc(C(N)=O)cn3)cnn21 [Co. No. 82, N2-[(7S)-7-Methyl-4-oxo-5-[4-(trifluoromethyl)phenyl]-6,7-dihydropyrazolo[1,5-a]pyrazin-3-yl]pyridine-2,5-dicarboxamide]	104%	1.12e-07 M	278.58 °C			
Cc1cc(N)ncc1C(=O)Nc1cnn2c1C(=O)N(c1ccc(C(F)(F)F)c(Cl)c1)C[C@@H]2C [Co. No. 164]	108%	1.35e-09 M	233.32 °C			
COCc1ccccc1C(=O)Nc1cnn2c1C(=O)N(c1ccc(C(F)(F)F)cc1)C[C@@H]2C [Co. No. 78]	105%	5.62e-08 M	88.18 °C			
